Data from PubChem BioAssay (NCI).
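Tested at 5 concentrations; 48 h exposure; 96-well plates; endpoints linearly interpolated, else capped at highest concentration. TGI: total growth inhibition.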

Experiments:
Experiment in all cases: inhibition of tumour cell growth, NCI panel, 48 h
OVCAR-5 ovarian = tested on: OVCAR-5 ovarian
HCT-116 colon = tested on: HCT-116 colon
SF-268 CNS = tested on: SF-268 CNS
NCI-H226 lung = tested on: NCI-H226 lung
SF-539 CNS = tested on: SF-539 CNS
U251 CNS = tested on: U251 CNS
HT29 colon = tested on: HT29 colon
MALME-3M melanoma = tested on: MALME-3M melanoma
SF-295 CNS = tested on: SF-295 CNS
OVCAR-3 ovarian = tested on: OVCAR-3 ovarian
NCI/ADR-RES ovarian = tested on: NCI/ADR-RES ovarian
SNB-75 CNS = tested on: SNB-75 CNS
ACHN renal = tested on: ACHN renal
K-562 leukemia = tested on: K-562 leukemia
T-47D breast = tested on: T-47D breast
SN12C renal = tested on: SN12C renal
CCRF-CEM leukemia = tested on: CCRF-CEM leukemia
NCI-H522 lung = tested on: NCI-H522 lung
NCI-H460 lung = tested on: NCI-H460 lung
MOLT-4 leukemia = tested on: MOLT-4 leukemia
DU-145 prostate = tested on: DU-145 prostate
HOP-92 NSCLC = tested on: HOP-92 NSCLC
IGROV1 ovarian = tested on: IGROV1 ovarian
HCC-2998 colon = tested on: HCC-2998 colon
OVCAR-4 ovarian = tested on: OVCAR-4 ovarian
A498 renal = tested on: A498 renal
A549 NSCLC = tested on: A549 NSCLC
BT-549 breast = tested on: BT-549 breast
OVCAR-8 ovarian = tested on: OVCAR-8 ovarian
PC-3 prostate = tested on: PC-3 prostate
MCF7 breast = tested on: MCF7 breast
UACC-257 melanoma = tested on: UACC-257 melanoma
TK-10 renal = tested on: TK-10 renal
HS 578T breast = tested on: HS 578T breast
NCI-H23 lung = tested on: NCI-H23 lung
MDA-MB-231 breast = tested on: MDA-MB-231 breast
SNB-19 CNS = tested on: SNB-19 CNS
RXF 393 renal = tested on: RXF 393 renal
SK-OV-3 ovarian = tested on: SK-OV-3 ovarian
MDA-MB-435 = tested on: MDA-MB-435
RPMI-8226 leukemia = tested on: RPMI-8226 leukemia
LOX IMVI melanoma = tested on: LOX IMVI melanoma
786-0 renal = tested on: 786-0 renal
KM12 colon = tested on: KM12 colon
SR leukemia = tested on: SR leukemia
SK-MEL-5 melanoma = tested on: SK-MEL-5 melanoma
CAKI-1 renal = tested on: CAKI-1 renal
HOP-62 NSCLC = tested on: HOP-62 NSCLC
M14 melanoma = tested on: M14 melanoma
SK-MEL-2 melanoma = tested on: SK-MEL-2 melanoma
COLO 205 colon = tested on: COLO 205 colon
HL-60(TB) leukemia = tested on: HL-60(TB) leukemia
MDA-N = tested on: MDA-N
SK-MEL-28 melanoma = tested on: SK-MEL-28 melanoma
UACC-62 melanoma = tested on: UACC-62 melanoma
EKVX NSCLC = tested on: EKVX NSCLC
UO-31 renal = tested on: UO-31 renal
SW-620 colon = tested on: SW-620 colon
HCT-15 colon = tested on: HCT-15 colon

Compound: C=CCCCCNC(=O)C[C@@H]1C2=C(CC[C@H]1O[Si](C)(C)C(C)(C)C)N1C(=O)CCC/C=C\C1C2 (some centres not stated)
- TGI (OVCAR-5 ovarian): 29.5 µM
- TGI (HCT-116 colon): 26 µM
- TGI (SF-268 CNS): 29.9 µM
- TGI (NCI-H226 lung): 29.9 µM
- TGI (SF-539 CNS): 31.3 µM
- TGI (U251 CNS): 26.3 µM
- TGI (HT29 colon): 24.7 µM
- TGI (MALME-3M melanoma): 28.2 µM
- TGI (SF-295 CNS): 30.2 µM
- TGI (OVCAR-3 ovarian): 28 µM
- TGI (NCI/ADR-RES ovarian): 24.7 µM
- TGI (SNB-75 CNS): 30.7 µM
- TGI (ACHN renal): 28.7 µM
- TGI (K-562 leukemia): 20.9 µM
- TGI (T-47D breast): 29.8 µM
- TGI (SN12C renal): 28.8 µM
- TGI (CCRF-CEM leukemia): 25.7 µM
- TGI (NCI-H522 lung): 24.7 µM
- TGI (NCI-H460 lung): 27.9 µM
- TGI (MOLT-4 leukemia): 20 µM
- TGI (DU-145 prostate): 30.1 µM
- TGI (HOP-92 NSCLC): 23.1 µM
- TGI (IGROV1 ovarian): 29.7 µM
- TGI (HCC-2998 colon): 22.1 µM
- TGI (OVCAR-4 ovarian): 25 µM
- TGI (A498 renal): 28.4 µM
- TGI (A549 NSCLC): 25.8 µM
- TGI (BT-549 breast): 30.1 µM
- TGI (OVCAR-8 ovarian): 28.2 µM
- TGI (PC-3 prostate): 24.4 µM
- TGI (MCF7 breast): 24.7 µM
- TGI (UACC-257 melanoma): 25.8 µM
- TGI (TK-10 renal): 29.6 µM
- TGI (HS 578T breast): 32.9 µM
- TGI (NCI-H23 lung): 27.7 µM
- TGI (MDA-MB-231 breast): 26.1 µM
- TGI (SNB-19 CNS): 27.4 µM
- TGI (RXF 393 renal): 23.7 µM
- TGI (SK-OV-3 ovarian): 31.1 µM
- TGI (MDA-MB-435): 28.4 µM
- TGI (RPMI-8226 leukemia): 22.1 µM
- TGI (LOX IMVI melanoma): 31.4 µM
- TGI (786-0 renal): 28.7 µM
- TGI (KM12 colon): 28.2 µM
- TGI (SR leukemia): 23.4 µM
- TGI (SK-MEL-5 melanoma): 27.1 µM
- TGI (CAKI-1 renal): 24.8 µM
- TGI (HOP-62 NSCLC): 35.5 µM
- TGI (M14 melanoma): 27.4 µM
- TGI (SK-MEL-2 melanoma): 26.1 µM
- TGI (COLO 205 colon): 26.7 µM
- TGI (HL-60(TB) leukemia): 13.6 µM
- TGI (MDA-N): 29.8 µM
- TGI (SK-MEL-28 melanoma): 29.7 µM
- TGI (UACC-62 melanoma): 25.5 µM
- TGI (EKVX NSCLC): 31.1 µM
- TGI (UO-31 renal): 27.2 µM
- TGI (SW-620 colon): 27.4 µM
- TGI (HCT-15 colon): 27 µM

Compound: OC(COc1cccc2ccccc12)CN1CCOCC1 (configuration not stated)
- TGI (OVCAR-5 ovarian): > 100 µM
- TGI (HCT-116 colon): > 100 µM
- TGI (SF-268 CNS): > 100 µM
- TGI (NCI-H226 lung): > 100 µM
- TGI (SF-539 CNS): > 100 µM
- TGI (U251 CNS): > 100 µM
- TGI (HT29 colon): > 100 µM
- TGI (MALME-3M melanoma): > 100 µM
- TGI (SF-295 CNS): > 100 µM
- TGI (OVCAR-3 ovarian): > 100 µM
- TGI (NCI/ADR-RES ovarian): > 100 µM
- TGI (SNB-75 CNS): > 100 µM
- TGI (ACHN renal): > 100 µM
- TGI (K-562 leukemia): > 100 µM
- TGI (T-47D breast): > 100 µM
- TGI (SN12C renal): > 100 µM
- TGI (CCRF-CEM leukemia): > 100 µM
- TGI (NCI-H522 lung): > 100 µM
- TGI (NCI-H460 lung): > 100 µM
- TGI (MOLT-4 leukemia): > 100 µM
- TGI (DU-145 prostate): > 100 µM
- TGI (HOP-92 NSCLC): 98.9 µM
- TGI (IGROV1 ovarian): > 100 µM
- TGI (HCC-2998 colon): > 100 µM
- TGI (OVCAR-4 ovarian): > 100 µM
- TGI (A498 renal): > 100 µM
- TGI (A549 NSCLC): > 100 µM
- TGI (BT-549 breast): > 100 µM
- TGI (OVCAR-8 ovarian): > 100 µM
- TGI (PC-3 prostate): > 100 µM
- TGI (MCF7 breast): > 100 µM
- TGI (UACC-257 melanoma): > 100 µM
- TGI (TK-10 renal): > 100 µM
- TGI (HS 578T breast): > 100 µM
- TGI (NCI-H23 lung): > 100 µM
- TGI (MDA-MB-231 breast): > 100 µM
- TGI (SNB-19 CNS): > 100 µM
- TGI (RXF 393 renal): > 100 µM
- TGI (SK-OV-3 ovarian): > 100 µM
- TGI (MDA-MB-435): > 100 µM
- TGI (RPMI-8226 leukemia): > 100 µM
- TGI (LOX IMVI melanoma): > 100 µM
- TGI (786-0 renal): > 100 µM
- TGI (KM12 colon): > 100 µM
- TGI (SR leukemia): > 100 µM
- TGI (SK-MEL-5 melanoma): > 100 µM
- TGI (CAKI-1 renal): > 100 µM
- TGI (HOP-62 NSCLC): > 100 µM
- TGI (M14 melanoma): > 100 µM
- TGI (SK-MEL-2 melanoma): > 100 µM
- TGI (COLO 205 colon): > 100 µM
- TGI (HL-60(TB) leukemia): > 100 µM
- TGI (MDA-N): > 100 µM
- TGI (SK-MEL-28 melanoma): > 100 µM
- TGI (UACC-62 melanoma): > 100 µM
- TGI (EKVX NSCLC): > 100 µM
- TGI (UO-31 renal): > 100 µM
- TGI (SW-620 colon): > 100 µM
- TGI (HCT-15 colon): > 100 µM

Compound: C=C(C(=O)OC)N1C(=O)CC(C)C1=O (configuration not stated)
- TGI (OVCAR-5 ovarian): 29.8 µM
- TGI (HCT-116 colon): 19.5 µM
- TGI (SF-268 CNS): 36.4 µM
- TGI (NCI-H226 lung): 70.3 µM
- TGI (SF-539 CNS): 36 µM
- TGI (U251 CNS): 35 µM
- TGI (HT29 colon): 25.2 µM
- TGI (MALME-3M melanoma): 5 µM
- TGI (SF-295 CNS): > 72 µM
- TGI (OVCAR-3 ovarian): 22.4 µM
- TGI (NCI/ADR-RES ovarian): 36 µM
- TGI (SNB-75 CNS): 36.2 µM
- TGI (ACHN renal): 7.51 µM
- TGI (K-562 leukemia): 12.8 µM
- TGI (T-47D breast): 33.1 µM
- TGI (SN12C renal): 31.1 µM
- TGI (CCRF-CEM leukemia): 4.62 µM
- TGI (NCI-H522 lung): 5.05 µM
- TGI (NCI-H460 lung): 35.1 µM
- TGI (MOLT-4 leukemia): 10.7 µM
- TGI (DU-145 prostate): 29.8 µM
- TGI (HOP-92 NSCLC): 3.98 µM
- TGI (IGROV1 ovarian): 31.5 µM
- TGI (HCC-2998 colon): 31.4 µM
- TGI (OVCAR-4 ovarian): 37.4 µM
- TGI (A498 renal): 36.8 µM
- TGI (A549 NSCLC): 44.2 µM
- TGI (BT-549 breast): 30.9 µM
- TGI (OVCAR-8 ovarian): 43.1 µM
- TGI (PC-3 prostate): 30.4 µM
- TGI (MCF7 breast): 30.5 µM
- TGI (UACC-257 melanoma): 25.8 µM
- TGI (TK-10 renal): 17.7 µM
- TGI (HS 578T breast): 71.2 µM
- TGI (NCI-H23 lung): 33.5 µM
- TGI (MDA-MB-231 breast): 34.1 µM
- TGI (SNB-19 CNS): 58.8 µM
- TGI (RXF 393 renal): 26.1 µM
- TGI (SK-OV-3 ovarian): 98.9 µM
- TGI (MDA-MB-435): 37.2 µM
- TGI (RPMI-8226 leukemia): 12.7 µM
- TGI (LOX IMVI melanoma): 19.1 µM
- TGI (786-0 renal): 23.5 µM
- TGI (KM12 colon): 43.8 µM
- TGI (SR leukemia): 6.9 µM
- TGI (SK-MEL-5 melanoma): 32.7 µM
- TGI (CAKI-1 renal): 4.38 µM
- TGI (HOP-62 NSCLC): 35.6 µM
- TGI (M14 melanoma): 29.6 µM
- TGI (SK-MEL-2 melanoma): 33.9 µM
- TGI (COLO 205 colon): 14.3 µM
- TGI (HL-60(TB) leukemia): 3.78 µM
- TGI (MDA-N): 28.9 µM
- TGI (SK-MEL-28 melanoma): 23.1 µM
- TGI (UACC-62 melanoma): 29.6 µM
- TGI (EKVX NSCLC): 29.9 µM
- TGI (UO-31 renal): 26.1 µM
- TGI (SW-620 colon): 25.5 µM
- TGI (HCT-15 colon): 23.6 µM
